Measured values: patent US7030087B2, “Synthetic approach to designed chemical structures” (priority 1996, dated 2006)

Legend:
HUVEC = experiment: Leukocyte/EC adhesion assay; format: cell-based, human; details: bFGF 10 ng/ml + PF4 100 μg/ml
Protocol: Functional impact for the observed phenomena was provided by leukocyte/EC adhesion assays as described earlier (Griffioen et al. Cancer Res. 56:1111–1117, 1996). […] TNF mediated upregulation of adhesion to bFGF preincubated HUVEC in the presence of PF4 was similar to the adhesion to TNF treated control cells. PHA-activated peripheral blood T lymphocyte were adhered for 1 hour at 37° C. to TNF-α (4 ng/ml), bFGF (10 ng/ml)+PF4 (100 μg/ml) treated, or control (HUVEC). Non-adhering cells were removed and adhered cells were enumerated by an inverted microscope. Values of one representative experiment out of three are expressed as numbers of adhered cells per high power field. Statistical significance is determined by the Student's t-test.

EC (endothelial cells) = experiment: EC proliferation, 3[H]thymidine incorporation assay; format: cell-based
Protocol: (§1) Since the in vivo situation of tumor associated EC involves the low expression or even absence of ICAM-1, the next set of experiments aimed to study the ability to reinduce ICAM-I expression after bFBF preincubation. […] In these experiments, HUVEC were pretreated for 3 days with bFGF, subsequently PF4 was added for 3 days and, where indicated in the last 16 hours of culture 4 ng/ml TNFα was added. Human umbilical vein derived endothelial cells (HUVEC) were harvested from normal human umbilical cords by perfusion with 0.125% trypsin/EDTA as described previously. Cells were cultured in fibronectin (FN) coated tissue culture flasks in culture medium (RPMI-1640 with 20% human serum (HS), supplemented with 2 mM glutamine and 100 U/ml penicillin and 0.1 mg/ml streptomycin). Immunofluorescence using indirect PE-conjugated reagents required three separate incubations. 1×10^5 EC were fixed for 1 hour in 1% paraformaldehyde, resuspended in 20 μl appropriately diluted Mab and incubated for 1 hour on ice. Subsequently, cells were washed two times in PBS/BSA (0.1%) and incubated for another 30 minutes with biotinylated rabbit-anti-mouse Ig (Dako, Glostrup, Denmark). After another 2 washings, cells were incubated with streptavidin-phycoerythrin conjugate (Dako). Stained cells were analyzed on a FACScan flowcytometer. Data analysis was performed using PCLysys software (Becton Dickinson, Mountain View, Calif.). Statistical significance of observed differences was determined using the Student's t-test.
EC proliferation was measured using a ^3[H]thymidine incorporation assay. EC were seeded in flatbottomed 96-well tissue culture plates (5000 cells/well) and grown for 3 days, in culture medium. In some cultures the proliferation of EC was enhanced by incubation with 10 ng/ml bFGF. During the list 6 hours of the assay, the culture was pulsed with 0.5 μCi [methyl-^3H]thymidine/well. Results are expressed as the arithmetic mean counts per minute (cpm) of triplicate cultures.

ICAM-1 = ICAM-1 expression on endothelial cells (immunofluorescence, FACScan); format: cell-based, human
Protocol: In a first series of experiments, PF4 and βpep peptides were tested for their ability to prevent bFGF (fibroblast growth factor) mediated downregulation of ICAM-1. […] Simultaneously 100 μg/ml of each PF4, βpep-14, βpep-16, or medium was added. Mean ICAM-1 fluorescence intensity values were determined.
as §1
The energy of EC to stimulation with inflammatory cytokines was the subject of a next series of experiments. For these experiments, HUVEC (human vascular endothelial cells) were pretreated with 10 ng/ml bFGF for 3 days. Subsequently, cells are subcultured for 3 days with […] in the presence of PF4. For the last 16 hours of the culture 4 ng/ml TNFα was added to induce upregulation of ICAM-1. […] The regulation of ICAM-1 at the protein level was confirmed in Northern blot analysis for detection of ICAM-1 message. In these experiments, HUVEC were cultured for 3 days with bFGF and treated for the last 4 and 24 hours with PF4 (100 μg/ml). TNFα was added 2 hours before isolation of RNA. RNA from a subconfluent EC cultures (75 cm^2 Petri-dishes) incubated with bFGF for different time-points was isolated using an RNA-zol kit (Campro Scientific, Houston, Tex.). Total RNA (10 μg) for each sample was separated in a 0.8% formaldehyde-denaturing gel, transferred to nitrocellulose (Hybond N+, Amersham International, Amersham, UK) and hybridized to a ^32P-labelled 1.9 Kb c-DNA probe, containing the functional sequence of the human ICAM-1 gene (a gift from Dr. B. Seed). Membranes were washed at a high stringency in 0.2×SSC, 0.1% SDS at 50° C. for 1 hour. Filters were exposed to X-ray films (Kodak X-omat, Eastman Kodak Company, Rochester, N.Y.) using an intensifying screen at −80° C. for not less than 12 hr. Autoradiograms were subjected to scanning using a laser densitometer (Model GS670, Bio-Rad, Hercules, Calif.) and data were analysed with the Molecular Analyst PC™ software. The intensity of the major ICAM-1 mRNA transcript was normalized with respect to actin mRNA expression used as a control.

platelet factor 4 [PF4]
bFGF mediated inhibition of leukocyte adhesion to cultured HUVEC (in words) (HUVEC): completely abolished | (3H)-thymidine incorporation (EC (endothelial cells); expt 1, 1 μg/ml, 10 ng/ml bFGF, medium 28815 ± 1007): 28782 ± 815 cpm | (3H)-thymidine incorporation (EC (endothelial cells); expt 1, 1 μg/ml, no bFGF, medium 4044 ± 206): 4656 ± 456 cpm | (3H)-thymidine incorporation (EC (endothelial cells); expt 1, 10 μg/ml, 10 ng/ml bFGF, medium 28815 ± 1007): 23868 ± 402 cpm | (3H)-thymidine incorporation (EC (endothelial cells); expt 1, 10 μg/ml, no bFGF, medium 4044 ± 206): 4066 ± 351 cpm | (3H)-thymidine incorporation (EC (endothelial cells); expt 1, 100 μg/ml, 10 ng/ml bFGF, medium 28815 ± 1007): 4655 ± 421 cpm | (3H)-thymidine incorporation (EC (endothelial cells); expt 1, 100 μg/ml, no bFGF, medium 4044 ± 206): 1651 ± 172 cpm | (3H)-thymidine incorporation (EC (endothelial cells); expt 2 (second, r19), 1 μg/ml, 10 ng/ml bFGF, medium 52808 ± 4092): 43524 ± 5318 cpm | (3H)-thymidine incorporation (EC (endothelial cells); expt 2 (second, r19), 1 μg/ml, no bFGF, medium 6780 ± 713): 6171 ± 1227 cpm | (3H)-thymidine incorporation (EC (endothelial cells); expt 2 (second, r19), 10 μg/ml, 10 ng/ml bFGF, medium 52808 ± 4092): 8337 ± 704 cpm | (3H)-thymidine incorporation (EC (endothelial cells); expt 2 (second, r19), 10 μg/ml, no bFGF, medium 6780 ± 713): 3547 ± 317 cpm | (3H)-thymidine incorporation (EC (endothelial cells); expt 2 (second, r19), 100 μg/ml, 10 ng/ml bFGF, medium 52808 ± 4092): 1654 ± 375 cpm | (3H)-thymidine incorporation (EC (endothelial cells); expt 2 (second, r19), 100 μg/ml, no bFGF, medium 6780 ± 713): 947 ± 170 cpm | bFGF mediated downregulation of ICAM-1 (in words) (ICAM-1; 10 ng/ml bFGF for 3 days, 100 μg/ml added simultaneously): did not result in the loss of ICAM-1 expression | expression of ICAM-1 (in words) (ICAM-1; 100 μg/ml, without bFGF): enhanced the expression of ICAM-1 | decreased inflammatory response (TNFα upregulation of ICAM-1) of angiogenic stimulated EC (in words) (ICAM-1; HUVEC 3 days 10 ng/ml bFGF, then 3 days with bFGF and test agent, 4 ng/ml TNFα last 16 hours): overcome | reinduction of ICAM-1 expression after bFGF preincubation (in words) (ICAM-1; HUVEC pretreated 3 days with bFGF, then 100 μg/ml for 3 days in the presence of bFGF): reinduction of ICAM-1
